test system: Meloidogyne incognita; experiment: Meloidogyne incognita test (sand, lettuce, gall formation); type: in vivo; settings: Meloidogyne incognita, 336 h, 4 ppm, after 14 days; read-out: nematicidal efficacy (formation of galls)
Procedure: Meloidogyne incognita Test [table] To produce a suitable active compound preparation, 1 part by weight of active compound is mixed with the stated amount of solvent and the concentrate is diluted to the desired concentration with water. Vessels are filled with sand, active compound solution, an egg/larvae suspension of the southern root-knot nematode (Meloidogyne incognita) and lettuce seeds. The lettuce seeds germinate and the plants develop. The galls develop on the roots. After 14 days, the nematicidal efficacy in % is determined by the formation of galls. 100% means that no galls were found; 0% means that the number of galls on the treated plants corresponds to the untreated control.

| SMILES | pest or weed control at 4 ppm [%] |
| --- | --- |
| Cn1nc(C(=O)NS(=O)(=O)c2c(Cl)cccc2Cl)cc1-c1c(F)cccc1F [I-145] | 90 |

same assay, conditions: Meloidogyne incognita, 336 h, 20 ppm, after 14 days; read-out: nematicidal efficacy (formation of galls)

| SMILES | pest or weed control at 20 ppm [%] |
| --- | --- |
| Cc1ccc(-n2cnc(C(=O)NS(=O)(=O)c3ccccc3)c2)cc1 [I-209] | 90 |
| O=C(NS(=O)(=O)c1c(F)cccc1F)c1cn(-c2cccc(Cl)c2Cl)cn1 [I-248] | 100 |
| COc1ccc(Cl)c(S(=O)(=O)NC(=O)c2nc(C)n(-c3cc(Cl)cc(Cl)c3)c2Br)c1 [I-109] | 100 |
| COc1ccc(Cl)c(S(=O)(=O)NC(=O)c2ncn(C(C)CC(F)(F)F)c2Cl)c1 (centres unmarked) [I-100] | 90 |
| CSc1nc(C(=O)NS(=O)(=O)c2ccccc2Cl)cn1CCC(F)(F)F [I-445] | 90 |
| O=C(NS(=O)(=O)c1ccccc1Cl)c1ncn(-c2cccc(C(F)(F)F)c2)c1Cl [I-433] | 100 |
| Cc1ccc(C)c(S(=O)(=O)NC(=O)c2cn(-c3c(F)cccc3F)cn2)c1 [I-358] | 100 |
| COc1ccc(Cl)c(S(=O)(=O)NC(=O)c2cn(-c3cc(F)cc(Cl)c3)cn2)c1 [I-247] | 100 |
| O=C(NS(=O)(=O)c1cc(Cl)ccc1Cl)c1cn(-c2cc(Cl)cc(Cl)c2)cn1 [I-230] | 100 |
| O=C(NS(=O)(=O)c1c(F)cccc1F)c1cn(-c2cc(Cl)cc(Cl)c2)cn1 [I-222] | 100 |
| O=C(NS(=O)(=O)c1c(Cl)cccc1Cl)c1cn(-c2c(Cl)cccc2Cl)cn1 [I-245] | 100 |
| CCc1nc(C(=O)NS(=O)(=O)c2cc(OC)ccc2Cl)cn1-c1cc(F)cc(C(F)(F)F)c1 [I-404] | 90 |
| O=C(NS(=O)(=O)c1ccccc1)c1cn(-c2cc(Cl)c(Cl)c(Cl)c2)cn1 [I-304] | 90 |
| O=C(NS(=O)(=O)c1ccccc1)c1ncn(-c2ccc(C(F)(F)F)cc2)c1Cl [I-421] | 100 |
| O=C(NS(=O)(=O)c1c(F)cccc1F)c1cn(-c2cc(F)cc(C(F)(F)F)c2)cn1 [I-249] | 100 |
| COc1ccc(F)c(S(=O)(=O)NC(=O)c2cn(-c3cc(F)cc(Cl)c3)cn2)c1 [I-338] | 100 |
| O=C(NS(=O)(=O)c1ccc2c(c1Cl)OC(F)(F)O2)c1ncn(CCC(F)(F)F)c1Cl [I-030] | 90 |
| COc1ccc(Br)c(S(=O)(=O)NC(=O)c2cn(-c3cc(F)cc(Cl)c3)cn2)c1 [I-339] | 100 |
| O=C(NS(=O)(=O)c1ccccc1)c1cn(-c2cc(Br)cc(Br)c2)cn1 [I-273] | 90 |
| O=C(NS(=O)(=O)c1ccccc1Cl)c1ncn(CCC(F)(F)F)c1I [I-008] | 100 |
| COc1ccc(F)c(S(=O)(=O)NC(=O)c2cn(-c3cc(F)cc(F)c3)c(C)n2)c1 [I-371] | 90 |
| O=C(NS(=O)(=O)c1c(Cl)cccc1Cl)c1nc(Cl)n(C2CC2C(F)(F)F)c1Cl (centres unmarked) [I-461] | 100 |
| O=C(NS(=O)(=O)c1ccccc1)c1cn(-c2ccc(C(F)(F)F)cc2Cl)cn1 [I-194] | 100 |
| O=C(NS(=O)(=O)c1c(Cl)cccc1Cl)c1cn(-c2cc(Cl)cc(Cl)c2)cn1 [I-187] | 100 |
| CC(CC(F)(F)F)n1cnc(C(=O)NS(=O)(=O)c2ccccc2)c1Cl (centres unmarked) [I-069] | 100 |
| O=C(NS(=O)(=O)c1ccc(Cl)cc1Cl)c1cn(Cc2ccc(Cl)cc2)cn1 [I-148] | 100 |

| SMILES | pest or weed control at 20 ppm [%] |
| --- | --- |
| COc1ccc(Cl)c(S(=O)(=O)NC(=O)c2cn(-c3ccc(Cl)c(Cl)c3)cn2)c1 [I-218] | 70 |
| O=C(NS(=O)(=O)c1ccc(Cl)cc1)c1ncn(CCCCl)c1Cl [I-052] | 90 |
| COc1cccc(S(=O)(=O)NC(=O)c2ncn(-c3ccccc3C(F)(F)F)c2Cl)c1 [I-429] | 90 |
| COc1cc(OC)cc(S(=O)(=O)NC(=O)c2ncn(CCC(F)(F)F)c2Cl)c1 [I-087] | 70 |
| O=C(NS(=O)(=O)c1ccccc1Cl)c1cn(-c2cc(Cl)ccc2Cl)cn1 [I-203] | 100 |
| O=C(NS(=O)(=O)c1ccc(Cl)cc1Cl)c1cn(-c2cc(Cl)cc(C(F)(F)F)c2)cn1 [I-309] | 90 |
| COc1cccc(S(=O)(=O)NC(=O)c2ncn(CCC(C)C)c2Cl)c1 [I-047] | 100 |
| CSc1cccc(Cl)c1S(=O)(=O)NC(=O)c1cn(-c2cc(Cl)cc(Cl)c2)c(C)n1 [I-374] | 100 |
| O=C(NS(=O)(=O)c1ccccc1Cl)c1cn(-c2ccccc2)cn1 [I-191] | 100 |
| COc1ccc(Br)c(S(=O)(=O)NC(=O)c2nc(Cl)n(C3CC3C(F)(F)F)c2Cl)c1 (centres unmarked) [I-465] | 100 |
| COc1ccc(Cl)c(S(=O)(=O)NC(=O)c2ncn(CC(F)(F)C(F)(F)F)c2Cl)c1 [I-098] | 90 |
| CC(C)Oc1ccc(Cl)c(S(=O)(=O)NC(=O)c2cn(-c3cc(F)cc(Cl)c3)cn2)c1 [I-341] | 100 |
| O=C(NS(=O)(=O)c1ccccc1Cl)c1cn(-c2ccccc2F)cn1 [I-229] | 100 |
| COc1ccc(Cl)c(S(=O)(=O)NC(=O)c2cn(-c3cc(F)cc(F)c3)c(C)n2)c1 [I-320] | 100 |
| COc1ccc(Cl)c(S(=O)(=O)NC(=O)c2cn(Cc3c(F)cccc3F)cn2)c1 [I-002] | 90 |
| COc1ccc(S(=O)(=O)NC(=O)c2cn(-c3cc(F)cc(F)c3)c(C)n2)cc1 [I-410] | 100 |
| COc1ccc(F)c(S(=O)(=O)NC(=O)c2cn(-c3cc(F)cc(C(F)(F)F)c3)cn2)c1 [I-352] | 100 |
| O=C(NS(=O)(=O)c1c(Cl)cccc1Cl)c1cn(-c2ccc(C(F)(F)F)cc2Cl)cn1 [I-198] | 100 |
| COc1ccc(Cl)c(S(=O)(=O)NC(=O)c2ncn(-c3cc(F)ccc3F)c2C2CC2)c1 [I-490] | 90 |
| COc1ccc(Cl)c(S(=O)(=O)NC(=O)c2ncn(-c3cccc(Cl)c3)c2C(F)F)c1 [I-480] | 90 |
| O=C(NS(=O)(=O)c1ccc(Cl)cc1)c1ncn(CCC(F)(F)F)c1Cl [I-012] | 100 |
| CCc1nc(C(=O)NS(=O)(=O)c2cc(OC)ccc2Cl)cn1-c1cc(Cl)cc(Cl)c1 [I-402] | 90 |
| Cc1nc(C(=O)NS(=O)(=O)c2c(F)cccc2NC2CC2)cn1-c1cc(Cl)cc(Cl)c1 [I-379] | 100 |
| CC(C)Sc1cccc(Cl)c1S(=O)(=O)NC(=O)c1cn(-c2cc(Cl)cc(Cl)c2)cn1 [I-398] | 90 |
| Cc1ccccc1S(=O)(=O)NC(=O)c1cn(C)c(C(F)(F)F)n1 [I-474] | 100 |
| COc1ccc(Cl)c(S(=O)(=O)NC(=O)c2cn(-c3cc(F)cc(F)c3)c(C(C)C)n2)c1 [I-395] | 90 |

| SMILES | pest or weed control at 20 ppm [%] |
| --- | --- |
| COc1ccccc1S(=O)(=O)NC(=O)c1ncn(C2CCCC2C(F)(F)F)c1Cl (centres unmarked) [I-068] | 90 |
| COc1ccccc1S(=O)(=O)NC(=O)c1ncn(CC(F)(F)C(F)(F)F)c1Cl [I-081] | 90 |
| COc1ccc(S(=O)(=O)NC(=O)c2ncn(CCCCl)c2Cl)cc1 [I-050] | 90 |
| COc1ccccc1S(=O)(=O)NC(=O)c1ncn(-c2cccc(C(F)(F)F)c2)c1Cl [I-435] | 100 |
| CC(C)CCn1cnc(C(=O)NS(=O)(=O)c2ccc(Cl)cc2)c1Cl [I-046] | 100 |
| COc1ccc(S(=O)(=O)NC(=O)c2ncn(-c3ccccc3C(F)(F)F)c2Cl)cc1 [I-430] | 90 |
| O=C(NS(=O)(=O)c1c(Cl)cccc1Cl)c1cn(Cc2ccccc2Cl)cn1 [I-157] | 90 |
| O=C(NS(=O)(=O)c1ccc(Cl)cc1)c1cn(-c2ccc(Cl)c(Cl)c2)cn1 [I-202] | 70 |
| COc1ccc(Br)c(S(=O)(=O)NC(=O)c2cn(-c3cc(Cl)cc(C(F)(F)F)c3)cn2)c1 [I-336] | 100 |
| Cc1nc(C(=O)NS(=O)(=O)c2c(F)cccc2Cl)cn1-c1cc(F)cc(Cl)c1 [I-396] | 90 |
| Cc1nc(C(=O)NS(=O)(=O)c2c(F)cccc2NC2CC2)cn1-c1cc(F)cc(F)c1 [I-389] | 100 |
| Cc1ccc(S(=O)(=O)NC(=O)c2cn(CCC(F)(F)F)cn2)cc1 [I-022] | 90 |
| CCc1ccc(C)c(S(=O)(=O)NC(=O)c2nc(Cl)n(C3CC3C(F)(F)F)c2Cl)c1 (centres unmarked) [I-466] | 100 |
| COc1ccc(Br)c(S(=O)(=O)NC(=O)c2cn(-c3cc(Cl)cc(Cl)c3)c(C)n2)c1 [I-368] | 90 |
| COc1ccc(F)c(S(=O)(=O)NC(=O)c2nc(Cl)n(CCC(F)(F)F)c2Cl)c1 [I-457] | 100 |
| O=C(NS(=O)(=O)c1cc(C(F)(F)F)ccc1Cl)c1ncn(C2CC2C(F)(F)F)c1Cl (centres unmarked) [I-105] | 90 |
| Cn1nc(C(=O)NS(=O)(=O)c2c(Cl)cccc2Cl)cc1-c1c(F)cccc1F [I-145] | 70 |
| Cc1nc(C(=O)NS(=O)(=O)c2ccccc2Cl)cn1-c1cc(F)cc(Cl)c1 [I-327] | 100 |
| O=C(NS(=O)(=O)c1cccc(Cl)c1)c1ncn(CCOC(F)(F)F)c1Cl [I-056] | 90 |
| O=C(NS(=O)(=O)c1ccc(Cl)cc1Cl)c1cn(-c2ccc(Cl)cc2Cl)cn1 [I-208] | 100 |
| O=C(NS(=O)(=O)c1cc(C(F)(F)F)ccc1Br)c1cn(-c2cc(Cl)cc(Cl)c2)cn1 [I-235] | 90 |
| COc1ccc(Cl)c(S(=O)(=O)NC(=O)c2cn(-c3cc(Cl)cc(C(F)(F)F)c3)cn2)c1 [I-280] | 90 |
| COc1ccc(F)c(S(=O)(=O)NC(=O)c2cn(-c3c(F)cccc3F)cn2)c1 [I-360] | 90 |
| O=C(NS(=O)(=O)c1ccccc1Cl)c1cn(Cc2cccc(C(F)(F)F)c2)cn1 [I-162] | 100 |
